Experimental data reported in US9403830B2, “Inhibitors of leukotriene production” (Boehringer Ingelheim International GmbH, priority 2012, dated 2016).

Assays:
human LTA4 hydrolase = molecular target: T1, human LTA4 hydrolase (Homo sapiens, UniProt P09960); assay: LTA4H Enzyme assay (peptidase, Arg-AMC cleavage); type: biochemical; settings: LTA4H enzyme 1 nM, Arg-AMC substrate 50 μM, room temperature 1 h, fluorescence 380/460 nm
T1 sequence (P09960 1-611): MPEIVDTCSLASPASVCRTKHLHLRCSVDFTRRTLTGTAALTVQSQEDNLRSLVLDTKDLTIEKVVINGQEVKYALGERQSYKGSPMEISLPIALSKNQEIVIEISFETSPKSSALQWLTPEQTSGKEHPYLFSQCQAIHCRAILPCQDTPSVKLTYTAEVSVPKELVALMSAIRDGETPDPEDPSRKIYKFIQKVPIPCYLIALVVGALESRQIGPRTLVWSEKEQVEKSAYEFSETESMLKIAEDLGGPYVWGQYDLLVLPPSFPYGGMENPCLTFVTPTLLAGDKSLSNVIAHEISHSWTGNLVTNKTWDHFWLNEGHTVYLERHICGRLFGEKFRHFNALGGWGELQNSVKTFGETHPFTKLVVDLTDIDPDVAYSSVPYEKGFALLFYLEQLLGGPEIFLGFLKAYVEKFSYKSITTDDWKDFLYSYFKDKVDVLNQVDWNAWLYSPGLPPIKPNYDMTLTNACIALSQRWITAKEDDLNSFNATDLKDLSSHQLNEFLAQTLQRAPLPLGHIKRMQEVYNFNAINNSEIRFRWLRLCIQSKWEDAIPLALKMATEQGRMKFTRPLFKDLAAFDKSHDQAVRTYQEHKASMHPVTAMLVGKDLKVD
Procedure, shortened: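 Human LTA4H (1 nM final) incubated with compound and Arg-AMC (50 μM final) in 50 mM Tris-HCl pH 7.5, 100 mM KCl, 0.5% BSA, 1 h at room temperature. Product read as AMC fluorescence (ex 380/em 460 nm); IC50 reported.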

[1] = system: LTB4 synthesis in human whole blood; assay: human whole blood (HWB) assay, inhibition of LTB4 production; type: cell-based; settings: heparinized human whole blood, calcimycin 20 μM stimulation, plasma LTB4
Procedure, shortened: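 Plasma LTB4, quantified by HTRF immunoassay, is the read-out after calcimycin challenge (20 μM final, 30 min, 37 °C) of heparinized whole blood that had been pretreated with compound for 15 min at 37 °C; values given as IC50.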

For `CC(=O)N1CC2CCC(C1)N2Cc1ccc2cc(Oc3ccc(-c4ccn[nH]4)cc3)ccc2n1` [Example 245, 1-(8-{6-[4-(2H-Pyrazol-3-yl)-phenoxy]-quinolin-2-ylmethyl}-3,8-diaza-bicyclo[3.2.1]oct-3-yl)-ethanone], the IC50 (human LTA4 hydrolase) was 0.18 nM and the IC50 [1] was 170 nM.

`c1cc(-c2ccc(Oc3ccc4nc(CN5CCCC5)cn4c3)cc2)[nH]n1` [Example 246, 6-[4-(2H-Pyrazol-3-yl)-phenoxy]-2-pyrrolidin-1-ylmethyl-imidazo[1,2-a]pyridine] showed an IC50 (human LTA4 hydrolase) of 0.17 nM and an IC50 [1] of 180 nM.

`CC(=O)N1CCN(Cc2ccc3cc(Oc4ccc(-c5ccn[nH]5)cc4)ccc3n2)CC1` [Example 247, 1-(4-{6-[4-(2H-Pyrazol-3-yl)-phenoxy]-quinolin-2-ylmethyl}-piperazin-1-yl)-ethanone] was tested, and the IC50 (human LTA4 hydrolase) was 0.21 nM and the IC50 [1] was 190 nM.

`CC(=O)N[C@@H]1C[C@H]2CC[C@@H](C1)N2Cc1ccc2cc(Oc3ccc(-c4ccn[nH]4)cc3)ccc2n1` [Example 248, N-((exo)-8-{6-[4-(2H-Pyrazol-3-yl)-phenoxy]-quinolin-2-ylmethyl}-8-aza-bicyclo[3.2.1]oct-3-yl)-acetamide] showed an IC50 (human LTA4 hydrolase) of 0.083 nM and an IC50 [1] of 200 nM.

Molecule `c1cc(-c2ccc(Oc3ccc4ncc(CN5CCOCC5)cc4c3)cc2)[nH]n1` [Example 249, 3-Morpholin-4-ylmethyl-6-[4-(2H-pyrazol-3-yl)-phenoxy]-quinoline] has an IC50 (human LTA4 hydrolase) of 0.37 nM and an IC50 [1] of 200 nM.

`c1cc(-c2ccc(Oc3ccc4nc(CN5CCOCC5)cn4c3)cc2)[nH]n1` [Example 250, 2-Morpholin-4-ylmethyl-6-[4-(2H-pyrazol-3-yl)-phenoxy]-imidazo[1,2-a]pyridine] was tested, and the IC50 (human LTA4 hydrolase) was 0.57 nM and the IC50 [1] was 210 nM.

Work on `O=C1CC[C@@H](Cn2cc3cc(Oc4ccc(-c5ccn[nH]5)cc4)ccc3n2)N1` [Example 251, (S)-5-{5-[4-(2H-Pyrazol-3-yl)-phenoxy]-indazol-2-ylmethyl}-pyrrolidin-2-one] yielded an IC50 (human LTA4 hydrolase) of 0.87 nM and an IC50 [1] of 220 nM.

`c1cc(-c2ccc(Cc3ccc4nc(CN5CCOCC5)cn4c3)cc2)[nH]n1` [Example 252, 2-Morpholin-4-ylmethyl-6-[4-(2H-pyrazol-3-yl)-benzyl]-imidazo[1,2-a]pyridine] gave an IC50 (human LTA4 hydrolase) of 0.93 nM and an IC50 [1] of 250 nM.

`O=C1CC[C@@H](Cn2ncc3cc(Oc4ccc(-c5ccn[nH]5)cc4)ccc32)N1` [Example 253, (S)-5-{5-[4-(2H-Pyrazol-3-yl)-phenoxy]-indazol-1-ylmethyl}-pyrrolidin-2-one] gave an IC50 (human LTA4 hydrolase) of 1.4 nM and an IC50 [1] of 300 nM.

`c1cc(-c2ccc(Oc3ccc4nc(CN5CCOCC5)ccc4c3)cc2)[nH]n1` [Example 254, 2-Morpholin-4-ylmethyl-6-[4-(2H-pyrazol-3-yl)-phenoxy]-quinoline] showed an IC50 (human LTA4 hydrolase) of 0.7 nM and an IC50 [1] of 330 nM.

In the case of `O=C1OCCN1Cc1cn2cc(Oc3ccc(-c4ccn[nH]4)cc3)ccc2n1` [Example 255, 3-{6-[4-(2H-Pyrazol-3-yl)-phenoxy]-imidazo[1,2-a]pyridin-2-ylmethyl}-oxazolidin-2-one], the IC50 (human LTA4 hydrolase) is reported as 1.7 nM and the IC50 [1] is reported as 360 nM.

For `Cc1nc2ccc(Oc3ccc(-c4ccn[nH]4)cc3)cc2cc1CN1CCCC1` [Example 256, 2-Methyl-6-[4-(2H-pyrazol-3-yl)-phenoxy]-3-pyrrolidin-1-ylmethyl-quinoline], the IC50 (human LTA4 hydrolase) was 1.6 nM and the IC50 [1] was 480 nM.

Molecule `c1cc(-c2ccc(Oc3ccn4cc(CN5CCOCC5)nc4c3)cc2)[nH]n1` [Example 257, 2-Morpholin-4-ylmethyl-7-[4-(2H-pyrazol-3-yl)-phenoxy]-imidazo[1,2-a]pyridine] has an IC50 (human LTA4 hydrolase) of 2.5 nM and an IC50 [1] of 650 nM.

Molecule `O=C(c1cn2ccc(Oc3ccc(-c4ccn[nH]4)cc3)cc2n1)N1CCOCC1` [Example 258, Morpholin-4-yl-{7-[4-(2H-pyrazol-3-yl)-phenoxy]-imidazo[1,2-a]pyridin-2-yl}-methanone] has an IC50 (human LTA4 hydrolase) of 10 nM and an IC50 [1] of 2000 nM.

`O=C(O)C1CCN(Cc2cn3cc(Oc4ccc(-c5ccn[nH]5)cc4)ccc3n2)CC1` [Example 259, 1-{6-[4-(2H-Pyrazol-3-yl)-phenoxy]-imidazo[1,2-a]pyridin-2-ylmethyl}-piperidine-4-carboxylic acid] gave an IC50 (human LTA4 hydrolase) of 0.12 nM and an IC50 [1] of 2100 nM.

In the case of `O=C1CC[C@@H](OCc2cn3cc(Oc4ccc(-c5ccn[nH]5)cc4)ccc3n2)CN1` [Example 260, (R)-5-{6-[4-(2H-Pyrazol-3-yl)-phenoxy]-imidazo[1,2-a]pyridin-2-ylmethoxy}-piperidin-2-one], the IC50 (human LTA4 hydrolase) is reported as 5.3 nM and the IC50 [1] is reported as 2200 nM.
